target: MMP-13 catalytic domain (Homo sapiens, UniProt P45452); test: Inhibition of MMP-13 catalytic domain (thiopeptolide substrate hydrolysis assay); assay type: biochemical; details: compounds of Example 33, Biological Table 1; read-out: MMP-13CD IC50
Source text: The assays measure the amount by which a test compound reduces the hydrolysis of a thiopeptolide substrate catalyzed by a matrix metalloproteinase enzyme. Such assays are described in detail by Ye et al., in Biochemistry, 1992;31(45):11231–11235, which is incorporated herein by reference. One such assay is described below in Biological Method 1.
Thiopeptolide substrates show virtually no decomposition or hydrolysis at or below neutral pH in the absence of a matrix metalloproteinase enzyme. A typical thiopeptolide substrate commonly utilized for assays is Ac-Pro-Leu-Gly-thioester-Leu-Leu-Gly-OEt. A 100 μL assay mixture will contain 50 mM of N-2-hydroxyethylpiperazine-N′-2-ethanesulfonic acid buffer (“HEPES,” pH 7.0), 10 mM CaCl2, 100 μM thiopeptolide substrate, and 1 mM 5,5′-dithio-bis-(2-nitro-benzoic acid) (DTNB). The thiopeptolide substrate concentration may be varied, for example from 10 to 800 μM to obtain Km and Kcat values. The change in absorbance at 405 nm is monitored on a Thermo Max microplate reader (molecular Devices, Menlo Park, Calif.) at room temperature (22° C.). The calculation of the amount of hydrolysis of the thiopeptolide substrate is based on E412=13600 M^−1 cm^−1 for the DTNB-derived product 3-carboxy-4-nitrothiophenoxide. Assays are carried out with and without matrix metalloproteinase inhibitor compounds, and the amount of hydrolysis is compared for a determination of inhibitory activity of the test compounds.
Test compounds were evaluated at various concentrations in order to determine their respective IC50 values, the micromolar concentration of compound required to cause a 50% inhibition of catalytic activity of the respective enzyme.
Some representative compounds of Formula I have been evaluated for their ability to inhibit MMP-13. Inhibitor activity versus other MMPs with the compounds may be determined using, for example, MMP-1FL, which refers to full length interstitial collagenase; MMP-2FL, which refers to full length Gelatinase A; MMP-3CD, which refers to the catalytic domain of stromelysin; MMP-7FL, which refers to full length matrilysin; MMP-9FL, which refers to full length Gelatinase B; MMP-13CD, which refers to the catalytic domain of collagenase 3; and MMP-14CD, which refers to the catalytic domain of MMP-14. Test compounds can be evaluated at various concentrations in order to determine their respective IC50 values, the micromolar concentration of compound required to cause a 50% inhibition of the hydrolytic activity of the respective enzyme.

IC50 [µM]	SMILES
> 100	Cc1c(SCCOc2ccc(F)cc2)n(C)c(=O)n(Cc2ccccc2)c1=O [Example 33a, 3-Benzyl-6-[2-(4-fluoro-phenoxy)-ethylsulfanyl]-1,5-dimethyl-1H-pyrimidine-2,4-dione]
> 100	Cc1c(SCc2ccc3nc(C(F)(F)F)cc(Cl)c3c2)n(C)c(=O)n(Cc2ccccc2)c1=O [Example 33b, 3-Benzyl-6-(4-chloro-2-trifluoromethyl-quinolin-6-ylmethylsulfanyl)-1,5-dimethyl-1H-pyrimidine-2,4-dione]
> 100	Cc1c(SCCCc2ccccc2)n(C)c(=O)n(Cc2ccccc2)c1=O [Example 33c, 3-Benzyl-1,5-dimethyl-6-(3-phenyl-propylsulfanyl)-1H-pyrimidine-2,4-dione]
> 100	Cc1c(SCCC(=O)c2ccc(F)cc2)n(C)c(=O)n(Cc2ccccc2)c1=O [Example 33d, 3-Benzyl-6-[3-(4-fluoro-phenyl)-3-oxo-propylsulfanyl]-1,5-dimethyl-1H-pyrimidine-2,4-dione]
> 100	Cc1c(SCc2ccc3ccccc3c2)n(C)c(=O)n(Cc2ccccc2)c1=O [Example 33e, 3-Benzyl-1,5-dimethyl-6-(naphthalen-2-ylmethylsulfanyl)-1H-pyrimidine-2,4-dione]
> 100	Cc1c(SCC(=O)c2ccc(-c3ccccc3)cc2)n(C)c(=O)n(Cc2ccccc2)c1=O [Example 33f, 3-Benzyl-6-(2-biphenyl-4-yl-2-oxo-ethylsulfanyl)-1,5-dimethyl-1H-pyrimidine-2,4-dione]
> 100	Cc1c(SCc2ccccc2-c2ccccc2)n(C)c(=O)n(Cc2ccccc2)c1=O [Example 33g, 3-Benzyl-6-(biphenyl-2-ylmethylsulfanyl)-1,5-dimethyl-1 H-pyrimidine-2,4-dione]
> 100	COc1ccc(C(=O)CSc2c(C)c(=O)n(Cc3ccccc3)c(=O)n2C)cc1 [Example 33h, 3-Benzyl-6-[2-(4-methoxy-phenyl)-2-oxo-ethylsulfanyl]-1,5-dimethyl-1H-pyrimidine-2,4-dione]
> 100	Cc1c(SCc2ccc3nc(C(F)(F)F)cc(Cl)c3c2)[nH]c(=O)n(Cc2ccccc2)c1=O [Example 33i, 3-Benzyl-6-(4-chloro-2-trifluoromethyl-quinolin-6-ylmethylsulfanyl)-5-methyl-1H-pyrimidine-2,4-dione]
23	Cc1onc(-c2ccccc2)c1C(=O)CSc1[nH]c(=O)n(Cc2ccccc2)c(=O)c1C [Example 33j, 3-Benzyl-5-methyl-6-[2-(5-methyl-3-phenyl-isoxazol-4-yl)-2-oxo-ethylsulfanyl]-1H-pyrimidine-2,4-dione]
> 30	COc1ccc2nc(CSc3[nH]c(=O)n(Cc4ccccc4)c(=O)c3C)c(=O)oc2c1 [Example 33k, 3-Benzyl-6-(7-methoxy-2-oxo-2H-1,4-benzoxazin-3-ylmethylsulfanyl)-5-methyl-1H-pyrimidine-2,4-dione]
> 30	Cc1c(SCC(=O)c2cc(-c3ccccc3)no2)[nH]c(=O)n(Cc2ccccc2)c1=O [Example 33l, 3-Benzyl-5-methyl-6-[2-oxo-2-(3-phenyl-isoxazol-5-yl)-ethylsulfanyl]-1H-pyrimidine-2,4-dione]
> 100	Cc1c(SCCCc2ccccc2)[nH]c(=O)n(Cc2ccccc2)c1=O [Example 33m, 3-Benzyl-5-methyl-6-(3-phenyl-propylsulfanyl)-1H-pyrimidine-2,4-dione]
> 30	Cc1c(SCCC(=O)c2ccc(F)cc2)[nH]c(=O)n(Cc2ccccc2)c1=O [Example 33n, 3-Benzyl-6-[3-(4-fluoro-phenyl)-3-oxo-propylsulfanyl]-5-methyl-1H-pyrimidine-2,4-dione]
> 100	Cc1c(SCc2ccc3ccccc3c2)[nH]c(=O)n(Cc2ccccc2)c1=O [Example 33o, 3-Benzyl-5-methyl-6-(naphthalen-2-ylmethylsulfanyl)-1H-pyrimidine-2,4-dione]
> 30	Cc1c(SCC(=O)c2ccc(-c3ccccc3)cc2)[nH]c(=O)n(Cc2ccccc2)c1=O [Example 33p, 3-Benzyl-6-(2-biphenyl-4-yl-2-oxo-ethylsulfanyl)-5-methyl-1H-pyrimidine-2,4-dione]
> 100	Cc1c(SCc2nc3ccccc3[nH]2)[nH]c(=O)n(Cc2ccccc2)c1=O [Example 33q, 6-(1H-Benzimidazol-2-ylmethylsulfanyl)-3-benzyl-5-methyl-1H-pyrimidine-2,4-dione]
> 100	Cc1c(SCCCC(=O)c2ccc(Br)cc2)[nH]c(=O)n(Cc2ccccc2)c1=O [Example 33r, 3-Benzyl-6-[4-(4-bromo-phenyl)-4-oxo-butylsulfanyl]-5-methyl-1H-pyrimidine-2,4-dione]
> 100	Cc1c(SCCCCOc2ccccc2)[nH]c(=O)n(Cc2ccccc2)c1=O [Example 33s, 3-Benzyl-5-methyl-6-(4-phenoxy-butylsulfanyl)-1H-pyrimidine-2,4-dione]
> 30	Cc1c(SCC(=O)c2cc(-c3ccc(Cl)cc3Cl)no2)[nH]c(=O)n(Cc2ccccc2)c1=O [Example 33t, 3-Benzyl-6-{2-[3-(2,4-dichloro-phenyl)-isoxazol-5-yl]-2-oxo-ethylsulfanyl}-5-methyl-1H-pyrimidine-2,4-dione]
> 100	Cc1c(SCc2ccccc2-c2ccccc2)[nH]c(=O)n(Cc2ccccc2)c1=O [Example 33u, 3-Benzyl-6-(biphenyl-2-ylmethylsulfanyl)-5-methyl-1 H-pyrimidine-2,4-dione]
18	COc1ccc(C(=O)CSc2[nH]c(=O)n(Cc3ccccc3)c(=O)c2C)cc1 [Example 33v, 3-Benzyl-6-[2-(4-methoxy-phenyl)-2-oxo-ethylsulfanyl]-5-methyl-1H-pyrimidine-2,4-dione]

same assay, conditions: values in text, given as about; read-out: IC50 with MMP-13 catalytic domain

IC50 [µM]	SMILES
~2.1	Cc1c(SCc2cc(-c3ccc(Cl)cc3)on2)[nH]c(=O)n(Cc2ccccc2)c1=O [Example 6, 3-Benzyl-6-[5-(4-chloro-phenyl)-isoxazol-3-ylmethylsulfanyl]-5-methyl-1H-pyrimidine-2,4-dione]
~0.44	COc1ccc(-c2cc(CSc3[nH]c(=O)n(Cc4ccccc4)c(=O)c3C)on2)cc1 [Example 7, 3-Benzyl-6-[3-(4-methoxy-phenyl)-isoxazol-5-ylmethylsulfanyl]-5-methyl-1H-pyrimidine-2,4-dione]
~1.2	Cc1c(SCc2cc(-c3ccc(Cl)cc3)no2)[nH]c(=O)n(Cc2ccccc2)c1=O [Example 20, 3-Benzyl-6-[3-(4-chloro-phenyl)-isoxazol-5-ylmethylsulfanyl]-5-methyl-1H-pyrimidine-2,4-dione]
~0.44	COc1ccc2nc(Nc3[nH]c(=O)n(Cc4ccccc4)c(=O)c3C)sc2c1 [Example 29, 3-Benzyl-6-(6-methoxy-benzothiazol-2-ylamino)-5-methyl-1H-pyrimidine-2,4-dione]

From patent US7160893B2, “Pyrimidine-2,4-dione derivatives as matrix metalloproteinase inhibitors” (Warner-Lambert Company, priority 2002, dated 2007)
